Data from publication PMC12466479, “The Supersulfide-Producing Activity of Rat Cystathionine γ-Lyase Is Irreversibly Inactivated by L-CysNO but Not by L-GSNO” (Antioxidants, 2025).

Assays:
[1] = target: T1, Cystathionine γ-lyase (CSE) (Rattus norvegicus, UniProt P18757); test: SSP4 fluorescence assay of Cys-SSH production from cystine after preincubation with L-CysNO; also a substrate (HSNO by TAP-1, pyruvate assay); assay type: biochemical; set-up: gene Cth; recombinant rat CSE expressed in E. coli as GST-CSE, GST tag cleaved
T1 sequence (P18757 whole entry): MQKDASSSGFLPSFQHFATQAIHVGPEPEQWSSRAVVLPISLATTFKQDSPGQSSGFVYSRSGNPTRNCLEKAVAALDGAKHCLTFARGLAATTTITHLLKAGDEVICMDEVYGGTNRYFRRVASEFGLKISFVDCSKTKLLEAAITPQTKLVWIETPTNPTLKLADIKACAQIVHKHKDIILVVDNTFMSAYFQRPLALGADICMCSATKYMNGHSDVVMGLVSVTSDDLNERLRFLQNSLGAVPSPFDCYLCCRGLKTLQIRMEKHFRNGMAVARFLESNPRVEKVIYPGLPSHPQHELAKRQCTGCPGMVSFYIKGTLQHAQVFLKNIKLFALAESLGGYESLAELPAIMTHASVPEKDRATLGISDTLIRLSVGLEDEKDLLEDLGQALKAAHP

[2] = target: T1, Cystathionine γ-lyase (CSE); test: TAP-1 assay of HSNO production from L-CysNO with or without […] PLP; assay type: biochemical; set-up: gene Cth; recombinant rat CSE, purified from E. coli
[3] = target: T1, Cystathionine γ-lyase (CSE); set-up: gene Cth
[4] = target: T1, Cystathionine γ-lyase (CSE); set-up: gene Cth; remark: listed apart in the source

SMILES: N[C@@H](CSN=O)C(=O)O [L-CysNO, L-S-nitrosocysteine]
- IC50 [1]: 10 µM

SMILES: Cc1ncc(COP(=O)(O)O)c(C=O)c1O [PLP, pyridoxal 5′-phosphate]
- TAP-1 assay of HSNO production from L-CysNO with or without 50 μM PLP [2]: The PLP-dependent β-lyase activity of CSE toward L-CysNO—but not D-CysNO—in producing HSNO was evident

SMILES: N[C@@H](CCSC[C@H](N)C(=O)O)C(=O)O [cystathionine]
- DTNB assay of cysteine formed from 1 mM cystathionine (γ-lyase activity) [3]: The cysteine produced by CSE from cystathionine was measured by DTNB assay

SMILES: N[C@@H](CSSC[C@H](N)C(=O)O)C(=O)O [cystine]
- SSP4 fluorescence assay of Cys-SSH formed from 1 mM cystine (β-lyase activity) [4]: The Cys-SSH produced by CSE with cystine as the substrate was measured by using SSP4
